# Test results published in patent US10273442B1, “Device and method for concomitant ejection and suction of perfusate” (priority 2015, dated 2019).
# Entries after “also recorded” stand apart in the source; their conditions may differ.
# How the values were obtained:
# Assay type in all cases: cell-based, rat
# [1] = tested on: LII stellate cells in MEA; test: Spontaneous postsynaptic currents (sEPSCs, sIPSCs) in LII stellate cells of MEA after focal application of compounds to PrS via CESOP, voltage-clamp in acute brain slices; conditions: for percentage reduction in sIPSC frequency following application of the drug: NBQX 10 μM focally to PrS; for average sIPSC frequency / average sEPSC amplitude / average sEPSC frequency: glutamate 100 μM then NBQX 10 μM focally to PrS, mean ±SEM; for average sIPSC frequency: holding 0 mV; for average sEPSC amplitude / average sEPSC frequency: holding -70 mV
# Description: (§1) Sprague-Dawley rats (male; n=11 epileptic, n=15 controls) from postnatal (P) days 40 to 88 were used in this study. All experiments were carried out in accordance with the National Institute of Health Guide for the Care and Use of Laboratory Animals and were approved by the Florida State University Institutional Animal Care and Use Committee. Rats were made epileptic according to previously described protocols for bringing up the pilocarpine model of TLE. Briefly, rats were treated with pilocarpine (P41, 141±2 g; 380 mg/kg i.p.) 20 min after atropine methylbromide (5 mg/kg i.p.). Diazepam (10 mg/kg i.p.) was administered 2 h after the onset of status epilepticus and repeated as needed. Following recovery from status epilepticus, rats were video monitored (40 h/wk) for spontaneous seizures. Animals used for electrophysiological experiments were confirmed epileptic, displaying frank spontaneous recurrent seizures scored 3 or greater on the Racine scale (Racine 1972) on two or more observations during the 40 h/wk video monitoring. Recordings from epileptic animals were made on average 39 days (P80) post status epilepticus (range: 25-47 days, P66-P88), with initial seizures observed between 5 and 29 days post status. Control groups consisted of naive rats that were on average P70 (range: P49-P91).
# (§2) Rats were deeply anesthetized with urethane (1.5 g/kg ip) before being decapitated. Following decapitation, the brain was quickly removed from the skull before being placed in a chilled (4° C.) low-Ca^2+, low-Na^+“cutting solution” containing (in mM) 230 sucrose, 10 D-glucose, 26 NaHCO3, 2.5 KCl, 1.25 NaH2PO4, 10 MgSO4, and 0.5 CaCl2 equilibrated with a 95%-5% mixture of O2 and CO2. After removing the cerebellum and rostral half of the brain, a 10-15° semi-horizontal cut (in a ventral-caudal to dorsal-rostral plane) was made to the dorsal part of the cortex with respect to the horizontal plane (FIG. 2E). The cut dorsal surface of the brain was adhered to the cutting platform using cyanoacrylate glue. This cutting angle was chosen to increase the likelihood of preserving PrS projections to MEA in acute brain slices, because PrS projections tend to travel to the MEA in a lateroventral orientation. Semi-horizontal slices (400 μm) were prepared using a microslicer (VT1000S, Leica, Germany) in the chilled cutting solution and allowed to equilibrate in oxygenated artificial cerebrospinal fluid (aCSF) containing (in mM) 126 NaCl, 26 NaHCO3, 3 KCl, 1.25 NaH2PO4, 2 MgSO4, 2 CaCl2, 0.25 L-Glutamine, and 10 D-glucose (pH 7.4), first at 32° C. for 1 h and subsequently at room temperature before being transferred to the recording chamber.
# (§3) Recordings were obtained at 32±1° C. from neurons in LII and LIII of MEA under Nomarski optics (Zeiss) using a visualized infrared setup (Hamamatsu) that enabled identification of their location within the various lamina. On average, 3.5±0.4 (range: 2-5) and 3.6±0.4 (range: 2-6) cells were recorded per animals in the control and epileptic groups respectively. Patch electrodes were pulled from borosilicate glass (1.5 mm outer diameter, 0.75 mm inner diameter, 3-6 MΩ). The internal solution for voltage-clamp experiments contained (in mM): 120 cesium gluconate, 1 MgCl2, 1 CaCl2, 11 CsCl, 10 HEPES, 2 NaATP, 0.3 NaGTP, 1 QX-314, 11 EGTA, and 20 biocytin (pH 7.3, corrected with Cs-OH; final osmotic concentration, 290 mOsm). The internal solution for current-clamp experiments contained (in mM): 105 potassium gluconate, 30 KCl, 10 HEPES, 10 phosphocreatine, 4 MgATP, 0.3 GTP (pH adjusted to 7.3 with KOH; final osmotic concentration, 300 mOsm).
# (§4) Recording conditions were the same for control and epileptic animals. Slices were maintained in oxygenated (95% O2-5% CO2) aCSF, flowing at a rate of 2 ml/min. Drugs were applied focally to superficial PrS via the CESOP technique (FIGS. 4A-4E, described below). […]
# [2] = tested on: LIII pyramidal neurons in MEA; test: Spontaneous postsynaptic currents (sEPSCs, sIPSCs) in LIII pyramidal neurons of MEA after focal application of compounds to PrS via CESOP, voltage-clamp in acute brain slices
# Description: as §1, §2, §3, §4
# RS cell in LIII of PrS = test: Action potential firing of PrS neurons on local application via CESOP, current-clamp in acute brain slices; conditions: glutamate 100 μM, 3 min duration
# [3] = epileptic rats (pilocarpine model of TLE)
# [4] = epileptic conditions, glutamate 100 μM then NBQX 10 μM focally to PrS, holding 0 mV, mean ±SEM
Structure (SMILES),percentage reduction in sIPSC frequency following application of the drug ([1]; control animals),average sIPSC frequency ([1]; control rats),average sEPSC amplitude ([1]; control rats),average sEPSC frequency ([1]; control rats),"average sIPSC frequency [1, 3]","average sEPSC amplitude [1, 3]","average sEPSC frequency [1, 3]",percentage reduction in sIPSC frequency following application of the drug ([1]; epileptic rats),"sIPSC frequency ([2]; control animals, glutamate 100 μM then NBQX 10 μM focally to PrS, holding 0 mV, mean ±SEM)","reduction in sEPSC frequency following application of NBQX ([2]; control conditions, NBQX 10 μM focally to PrS)","average sEPSC frequency ([2]; control rats, glutamate 100 μM then NBQX 10 μM focally to PrS, holding -70 mV, mean ±SEM)","average sIPSC amplitude [2, 4]","average sIPSC frequency [2, 4]","sEPSC frequency ([2]; epileptic rats (pilocarpine model of TLE), glutamate 100 μM then NBQX 10 μM focally to PrS, holding -70 mV, mean ±SEM)",action potential discharge of PrS neurons in response to local application (RS cell in LIII of PrS)
"NS(=O)(=O)c1cccc2c1c([N+](=O)[O-])cc1[nH]c(=O)c(=O)[nH]c12 [NBQX, 2,3-dioxo-6-nitro-1,2,3,4-tetrahydrobenzo[f]quinoxaline-7-sulfonamide]",22%,11.1±1.4 Hz,18±1 pA,5.6±1 Hz,7.5±1 Hz,21±2 pA,4.9±0.8 Hz,11%,4.5±0.3 Hz,30%,4.6±0.6 Hz,30±2 pA,6.8±0.9 Hz,10.5±2 Hz,–
"N[C@@H](CCC(=O)[O-])C(=O)[O-].[Na+].[Na+] [glutamate, Sodium glutamate]",–,–,–,–,–,–,–,–,–,–,–,–,–,–,sustained action potential discharge; also recorded: reliably evokes action potential firing
